The Biogen ADME set (Fang et al. 2023)
≈ marks a conversion by molar mass, not a printed value.

Conditions: for aqueous solubility: pH 6.8

| Structure (SMILES) | intrinsic clearance, human liver microsomes | intrinsic clearance, rat liver microsomes | MDR1-MDCK efflux ratio | aqueous solubility | fraction unbound, human plasma | fraction unbound, rat plasma |
| --- | --- | --- | --- | --- | --- | --- |
| O=C(NCc1ccc(CN2CCS(=O)(=O)CC2)cc1)c1ccon1 | ≤ 4.74 mL/min/kg | ≤ 10.7 mL/min/kg |  |  |  |  |
| CC(C)(O)C(=O)N1CCC(c2ccc3c(NCc4ccccc4F)n[nH]c3n2)CC1 | 8.35 mL/min/kg | 69.8 mL/min/kg | 15.4 | 29.2 µg/mL (≈ 70.9 µM) |  |  |
| COc1ccc(Cl)cc1C(=O)NCCc1ccc(S(=O)(=O)NC(=O)NC2CCCCC2)cc1 | 28.7 mL/min/kg | 535 mL/min/kg | 123 |  | 0.00121 | 0.00114 |
| COCCN(C)c1ccc(CN2CCc3nn(C)c(=O)cc3C2)cn1 | ≤ 4.74 mL/min/kg | 22 mL/min/kg | 3.02 |  |  |  |
| COc1ccc(OCC(=O)Nc2cccc(Cl)c2N2CCN(C(C)=O)CC2)cc1 | 181 mL/min/kg | 3350 mL/min/kg | 1.09 | 4.7 µg/mL (≈ 11.2 µM) | 0.0502 |  |
| O=C(N[C@@H](COc1ccc2[nH]c(=O)[nH]c2c1)c1ccccc1)c1cccn(Cc2ccc(F)c(F)c2)c1=O | 53.2 mL/min/kg | 383 mL/min/kg |  |  |  |  |
| COc1ccc(C(=O)c2ccc(C)cc2)c(OC)c1 | 102 mL/min/kg | 3010 mL/min/kg | 0.46 |  |  |  |
| O=C(Cn1nc2n(c1=O)-c1ccccc1C1=NCCN12)N1CCc2ccccc21 |  |  | 22.4 | 5.79 µg/mL (≈ 15 µM) |  |  |
| Cn1c(=O)n(C2CCCC2)c(=O)c2c(F)cccc21 | 23.3 mL/min/kg | 415 mL/min/kg | 0.69 | 26 µg/mL (≈ 99 µM) |  |  |
| C=CCn1c(=O)c2cnc(Nc3ccc(N4CCN(C)CC4)cc3)nc2n1-c1cccc(C(C)(C)O)n1 | 32.7 mL/min/kg | 67.9 mL/min/kg | 63.4 |  |  |  |
| C[C@@H](NC(=O)N1CCC2(CCN(C)CC2)C1)c1ccc(F)cc1 | ≤ 4.74 mL/min/kg | ≤ 10.7 mL/min/kg | 1.75 |  |  |  |
| Cn1ccnc1CN(C(=O)c1[nH]c2ccccc2c1Cl)C1CC1 | 90.5 mL/min/kg | 2250 mL/min/kg | 12.4 | 62.3 µg/mL (≈ 189 µM) |  |  |
| Cc1ccc(C)c(-n2c(S)nnc2-c2ccc(O)cc2)c1 | 5.5 mL/min/kg | 164 mL/min/kg | 31.1 | 22.1 µg/mL (≈ 74.1 µM) |  |  |
| COc1ccncc1NCc1ccc2c(c1)OCCO2 | 17.8 mL/min/kg | 570 mL/min/kg | 0.666 | 31.1 µg/mL (≈ 114 µM) |  |  |
| CCCNS(=O)(=O)Nc1ncnc(OCCOc2ncc(Br)cn2)c1-c1ccc(Br)cc1 | 101 mL/min/kg | 631 mL/min/kg | 0.933 |  |  |  |
| O=C(Cc1cccc2ccccc12)NCc1nnc2n1-c1ccccc1CC2 | 239 mL/min/kg | 1730 mL/min/kg | 45 | 46.7 µg/mL (≈ 127 µM) |  |  |
| Cc1cccc(C)c1OCCn1nnnc1C | ≤ 4.74 mL/min/kg | 97.1 mL/min/kg | 0.657 |  |  |  |
| O=C(O)CCC(=O)Nc1ccccc1-c1nc2ccccc2[nH]c1=O | ≤ 4.74 mL/min/kg | ≤ 10.7 mL/min/kg | 0.345 | 60.7 µg/mL (≈ 180 µM) |  |  |
| O=C(Nc1ccccc1-c1cn2c(CN3CCNCC3)csc2n1)c1cnc2ccccc2n1 | 9.54 mL/min/kg | 19.2 mL/min/kg |  | 1.49 µg/mL (≈ 3.17 µM) |  |  |

| Structure (SMILES) | intrinsic clearance, human liver microsomes | intrinsic clearance, rat liver microsomes | MDR1-MDCK efflux ratio | aqueous solubility | fraction unbound, human plasma | fraction unbound, rat plasma |
| --- | --- | --- | --- | --- | --- | --- |
| Cc1cc2ccccc2n1CC(=O)N1CCc2ccc(O)cc2C1 | 25.3 mL/min/kg | 456 mL/min/kg | 2.59 | 12.4 µg/mL (≈ 38.8 µM) |  |  |
| C=CCNC(=O)C1(Cc2ccc(-c3ccccc3)cc2)CCN(C(=O)c2cccnc2)CC1 | 76.7 mL/min/kg | 557 mL/min/kg | 28 | 4 µg/mL (≈ 9.1 µM) |  |  |
| O=c1[nH]c2ccccc2n1C1CCN(Cc2coc(-c3cccs3)n2)CC1 | 29.4 mL/min/kg | 475 mL/min/kg |  |  |  |  |
| O=C(NCCN1CCC(c2ccccc2)CC1)c1ccc2ncsc2c1 | 15.2 mL/min/kg | 108 mL/min/kg | 1.31 | 44 µg/mL (≈ 120 µM) |  |  |
| Cc1cc2nc(Sc3nnc(C)n3C)c3ccccc3n2n1 | ≤ 4.74 mL/min/kg | 35 mL/min/kg | 11.3 |  |  |  |
| CCOc1cc(N(C)CC2CCN(C)CC2)ncn1 | 20.1 mL/min/kg | 561 mL/min/kg | 1.55 |  |  |  |
| O=C(CCCc1nnc(-c2ccccc2)o1)Nc1cccc2ccccc12 | 71.6 mL/min/kg | 1150 mL/min/kg | 0.976 | 1.31 µg/mL (≈ 3.67 µM) |  |  |
| COc1cc(/C=C/c2nccc(C#N)n2)ccc1F |  |  |  | 3.27 µg/mL (≈ 12.8 µM) |  |  |
| Cc1cccc(NCCc2cn3c(n2)CCCC3)n1 | ≤ 4.74 mL/min/kg | 971 mL/min/kg | 3.58 | 31 µg/mL (≈ 121 µM) |  |  |
| N#Cc1ccccc1-c1ccc(-c2nccn2-c2cccnc2)o1 | 87.9 mL/min/kg | 719 mL/min/kg | 1.48 | 29.7 µg/mL (≈ 95.2 µM) |  |  |
| Cc1ccc(NC(=O)c2cccc(N(C)C)c2)cc1NC(=O)c1ccc(O)cc1 | 45.4 mL/min/kg | 307 mL/min/kg | 16.6 | 3.3 µg/mL (≈ 8.47 µM) |  |  |
| O=C(CN1CCCC(c2cccc(-c3cccc(Cl)c3)n2)C1)N1CCCC1 (stereo not drawn) | 51.4 mL/min/kg | 419 mL/min/kg | 2.16 | 54.8 µg/mL (≈ 143 µM) |  |  |
| CC(=O)N1CCN(c2ncc(-c3cc(C)no3)c([C@H]3CCCO3)n2)CC1 | ≤ 4.74 mL/min/kg | 22.9 mL/min/kg | 2.44 | 68.6 µg/mL (≈ 192 µM) |  |  |
| O=C(CSc1nnc(-c2cccs2)[nH]1)N1CCCCCC1 | 39.4 mL/min/kg | 370 mL/min/kg | 2.11 | 27.6 µg/mL (≈ 85.6 µM) |  |  |
| O=c1c2ccncc2ncn1[C@H]1CCN(Cc2ccccc2)C1 | 22.6 mL/min/kg | 796 mL/min/kg | 0.442 |  |  |  |
| Nc1nc(N)c2c(OCC3CCN(Cc4c(Cl)cccc4Cl)CC3)cccc2n1 |  |  | 0.816 | 0.4 µg/mL (≈ 0.925 µM) |  |  |
| COc1ccc(Nc2nc(N)nc(CN3CCN(Cc4ccccc4)CC3)n2)cc1 | 25 mL/min/kg | 594 mL/min/kg | 10.9 | 65.1 µg/mL (≈ 161 µM) |  |  |
| Cc1c[nH]c(=O)n1-c1ccc(C(=O)Nc2ccc3ccccc3n2)cc1 | 8.88 mL/min/kg | 49.4 mL/min/kg | 10.2 | 5.9 µg/mL (≈ 17.1 µM) | 0.0436 |  |
| CNCc1cc(NC)nc(C2CCCN2C(=O)COc2ccccc2OC)n1 (stereo not drawn) | ≤ 4.74 mL/min/kg | 45.1 mL/min/kg | 1.2 |  |  |  |

| Structure (SMILES) | intrinsic clearance, human liver microsomes | intrinsic clearance, rat liver microsomes | MDR1-MDCK efflux ratio | aqueous solubility | fraction unbound, human plasma | fraction unbound, rat plasma |
| --- | --- | --- | --- | --- | --- | --- |
| CCc1nc2ccc(C(=O)NCc3ccccc3)cc2nc1CC | 101 mL/min/kg | 943 mL/min/kg |  | 2.15 µg/mL (≈ 6.73 µM) |  |  |
| CC(=O)Nc1sc2c(c1-c1nc3ccccc3s1)CCN(C(C)C)C2 | 34.8 mL/min/kg | 231 mL/min/kg |  |  |  |  |
| Cc1ncccc1CNc1ccc(CC#N)cc1 | 18.2 mL/min/kg | 364 mL/min/kg | 0.534 |  |  |  |
| O=c1cc(-c2cc(F)c(Cl)nc2Cl)[nH]c2c(-c3ccccc3)c(C(F)(F)F)nn12 | ≤ 4.74 mL/min/kg | 19.4 mL/min/kg | 1.91 |  |  |  |
| Cc1nc(-c2ccc(C)c(O)c2)n(C(C)(C)C)n1 | ≤ 4.74 mL/min/kg | 124 mL/min/kg |  | 12.1 µg/mL (≈ 49.3 µM) |  |  |
| Nc1nc2ccccc2n1CCCc1ccccc1 | 13.4 mL/min/kg | 463 mL/min/kg | 0.966 | 27.2 µg/mL (≈ 108 µM) |  |  |
| CCCNC(=O)CSc1nc2cc(C)ccc2[nH]1 | 107 mL/min/kg | 1190 mL/min/kg | 2.1 |  |  |  |
| O=C1CCCc2c1[nH]c1cc(-n3ccnc3-c3ccncc3)ccc21 | 26.7 mL/min/kg | 187 mL/min/kg | 14.5 | 6.53 µg/mL (≈ 19.9 µM) |  |  |
| CN(Cc1ccc(C(=O)O)cc1)C(=O)c1ccnn1C | ≤ 4.74 mL/min/kg | ≤ 10.7 mL/min/kg | 0.663 |  |  |  |
| Cc1noc(CCNc2cccc(F)c2C#N)n1 | 40.7 mL/min/kg | 266 mL/min/kg |  |  |  |  |
| CC1CCN(C(=O)CCn2ccc3ccncc32)CC1 | 119 mL/min/kg | 1960 mL/min/kg | 1.98 |  |  |  |
| CNCc1cc(N(C)C)nc(C2CCCN2C(=O)c2ccccc2-c2ccccc2)n1 (stereo not drawn) | 30.8 mL/min/kg | 228 mL/min/kg | 65.4 |  |  |  |
| CC(C)c1noc(CN(C)C2CCCC2)n1 | 15.9 mL/min/kg | 657 mL/min/kg |  | 17.3 µg/mL (≈ 77.3 µM) |  |  |
| CC(=O)N1CCN(CCNC(=O)N2CCc3sccc3C2)CC1 | 10.1 mL/min/kg | 74.2 mL/min/kg | 30.4 | 55.8 µg/mL (≈ 166 µM) |  |  |
| Cc1cc(-n2nc(C)cc2N)nc(C)n1 | 58.9 mL/min/kg | 125 mL/min/kg |  |  |  |  |
| O=C(Nc1cccnc1)c1ccnc(NC(=O)C2CC2)c1 | ≤ 4.74 mL/min/kg | 27.3 mL/min/kg | 2.81 | 40.8 µg/mL (≈ 144 µM) |  | 0.412 |
| Cc1nn(C)c2ncc(CNc3ccon3)cc12 | ≤ 4.74 mL/min/kg | 14.2 mL/min/kg | 0.858 |  |  |  |
| Clc1ccccc1C(c1ccccc1)(c1ccccc1)n1ccnc1 |  |  |  | 3.73 µg/mL (≈ 10.8 µM) |  |  |
| Cc1n[nH]c(C2CCN(C(=O)NC3CCN(c4ccc(F)cc4)CC3)CC2)n1 | ≤ 4.74 mL/min/kg | 38.3 mL/min/kg | 22.9 |  |  |  |
